Experimental data reported in patent publication US12497362B2, “Cyclopentapyrrole orexin receptor agonists” (Merck Sharp & Dohme LLC, priority 2020, dated 2025).

Target: T1, human OX2R (Homo sapiens, UniProt O43614)
T1 construct: expressed in transfected cells; host or cells: CHO (Chinese hamster ovary) cells, grown under G418 selection
T1 sequence (O43614 1-444): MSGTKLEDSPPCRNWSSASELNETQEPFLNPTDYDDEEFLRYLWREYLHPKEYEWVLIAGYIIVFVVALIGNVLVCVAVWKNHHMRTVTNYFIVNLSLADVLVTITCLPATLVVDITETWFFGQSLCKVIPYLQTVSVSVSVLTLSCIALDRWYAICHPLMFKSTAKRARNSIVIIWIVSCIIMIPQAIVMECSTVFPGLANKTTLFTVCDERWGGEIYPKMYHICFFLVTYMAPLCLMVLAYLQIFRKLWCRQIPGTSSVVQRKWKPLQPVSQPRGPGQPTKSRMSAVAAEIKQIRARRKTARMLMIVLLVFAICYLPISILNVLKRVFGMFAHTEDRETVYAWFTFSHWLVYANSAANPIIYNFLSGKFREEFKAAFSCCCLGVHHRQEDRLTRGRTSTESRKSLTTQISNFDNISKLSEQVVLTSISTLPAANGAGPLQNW
Assay: IPOne (IP-1 accumulation) orexin receptor agonist assay in CHO cells expressing human OX2R
Type: cell-based
Conditions: hOX2R IP-One assay, percent of mean max effect of a reference compound at 1 uM with 100% activity established by comparison to Orexin A
Excerpt: The utility of the compounds in accordance with the present invention as orexin receptor OX1R and/or OX2R agonists may be readily determined without undue experimentation by methodology well known in the art. Both the OX1R and/or OX2R G-coupled protein receptors (GPCRs) couple through the Gαq signaling pathway, which ultimately promotes calcium mobilization via inositol triphosphate (IP3) production. The half-life of IP-3 is relatively short, being rapidly metabolized to inositol monophosphate (IP-1), which can be readily detected using a commercially available assay kit (IP-One; Cisbio; cat #621PAPEC) coupled with a cell line expressing the target receptor(s) of interest. The utility of the compounds in accordance with the present invention as orexin receptor OX1R and/or OX2R agonists may be determined utilizing this assay.
In a typical experiment, the OX1 and OX2 receptor agonist activity is determined in accordance with the following general experimental method. Chinese hamster ovary (CHO) cells expressing human OX1R and/or the human OX2R were grown in Iscove's modified DMEM containing glutaMAX™, 1% G418, 100 U/mL penicillin, 100 μg/mL streptomycin and 10% heat-inactivated qualified fetal bovine serum (FBS). The OX2R cells were seeded at 10,000 cells/well/50 μL and the OX1R cells were seeded at 20,000 cells/well/50 μL into 384-well white tissue culture plates (Greiner; cat #781080). All cell/media reagents were from GIBCO-Invitrogen Corp. The seeded cell plate(s) were incubated at 37° C. with 5% CO2 and 85% humidity for 20-24 hours. On the day of the assay, assay-ready compound plates were prepared using an acoustic liquid handler (ECHO; Labcyte), which dispensed sufficient volume of test compound stock (10 mM in DMSO) or 100% DMSO to prepare 10 point, ½-log dilutions in a final volume of 202.5 nL/well in all test wells of a 384-well diamond plate (Labcyte). Following completion of assay-ready plates, importantly, the next three steps were performed with minimal delay: 1) 20 μl of 1× stimulation buffer was added to the compound plate using a Multidrop Combi (small cassette, Thermo Fisher Scientific cat #24073290); 2) culture medium was removed from the cell plate using the Bluewasher plate washer (gentle spin; BlueCatBio); 3) 14 μl of compound/stimulation buffer mixture was added to the cell plate using a Bravo liquid handler (Agilent) prior to incubating cell plates at 37° C. with 5% CO2 and 85% humidity for 1 or 2 hours (OX1R and OX2R, respectively). During this incubation, IP-one detection reagents were prepared (38:1:1 lysis buffer:D2:AB-cryptate reagents). Six μL of mixed detection reagents were added to the cell plate using a Multidrop Combi (small cassette, Thermo Fisher Scientific cat #24073290) and incubated 60 minutes at room temperature in the dark. Fluorescence signal was detected using an Envision plate reader (Perkin Elmer) [LANCE/DELFIA Dual Enh (Em: APC 665; Ex: Cy5 620)].
For each compound, data were fit to a four parameter logistic fit (ActivityBase software) and the EC50 was reported as the inflection point of the resulting curve. Percent effect for each test compound was determined as the percentage of sample raw value/mean max effect, where the mean max effect was derived from the mean raw value of 32 control wells per assay plate (using Orexin A (cat #003-30) at 1 μM for human OX1R and a reference compound at 1 uM with 100% activity previously established by comparison to Orexin A for human OX2R). The intrinsic orexin receptor agonist activity of a compound which may be used in the present invention may be determined by these assays.

SMILES	Emax
COC(=O)N1[C@@H]2CCC[C@@H]2[C@H](NS(=O)(=O)N(C)C)[C@@H]1CO[C@H]1CC[C@@H](c2cccc(F)c2)CC1 [Example 2, methyl (2R,3S,3aS,6aR)-3-((N,N-dimethylsulfamoyl)amino)-2-((((1s,4S)-4-(3-fluorophenyl)cyclohexyl)oxy)methyl)hexahydrocyclopenta[b]pyrrole-1(2H)-carboxylate]	101%
CC(C)OC(=O)N1[C@@H]2CCC[C@@H]2[C@H](NS(C)(=O)=O)[C@@H]1COC1CCN(c2ncc(F)cn2)CC1 [Example 10, Isopropyl (2R,3S,3aS,6aR)-2-(((1-(5-fluoropyrimidin-2-yl)piperidin-4-yl)oxy)methyl)-3-(methylsulfonamido)hexahydrocyclopenta[b]pyrrole-1(2H)-carboxylate]	103%
COC(=O)N1[C@@H]2CCC[C@@H]2[C@H](NS(C)(=O)=O)[C@@H]1CO[C@H]1CC[C@@H](c2ccccc2)CC1 [Example 7, Methyl (2R,3S,3aS,6aR)-3-(methylsulfonamido)-2-((((1s,4S)-4-phenylcyclohexyl)oxy)-methyl)hexahydrocyclopenta[b]pyrrole-1(2H)-carboxylate]	101%
COC(=O)N1[C@@H]2CCC[C@@H]2[C@H](NS(C)(=O)=O)[C@@H]1COC1CCN(c2ncc(F)cn2)CC1 [Example 9, Methyl (2R,3S,3aS,6aR)-2-(((1-(5-fluoropyrimidin-2-yl)piperidin-4-yl)oxy)methyl)-3-(methylsulfonamido)hexahydrocyclopenta[b]pyrrole-1(2H)-carboxylate]	97%
COC(=O)N1[C@@H]2CCC[C@@H]2[C@H](NS(=O)(=O)N(C)C)[C@@H]1CO[C@H]1CC[C@@H](c2ccccc2)CC1 [Example 8, Methyl (2R,3S,3aS,6aR)-3-((N,N-dimethylsulfamoyl)amino)-2-((((1s,4S)-4-phenyl-cyclohexyl)oxy)methyl)hexahydrocyclopenta[b]pyrrole-1(2H)-carboxylate]	98%
COC(=O)N1[C@@H]2COC[C@@H]2[C@H](NS(=O)(=O)N(C)C)[C@@H]1CO[C@H]1CC[C@@H](c2cccc(F)c2)CC1 [Example 5, methyl (2R,3S,3aS,6aS)-3-((N,N-dimethylsulfamoyl)amino)-2-((((1s,4S)-4-(3-fluorophenyl)cyclohexyl)oxy)methyl)hexahydro-1H-furo[3,4-b]pyrrole-1-carboxylate]	101%
CNS(=O)(=O)N[C@H]1[C@H]2CCC[C@H]2N(C(=O)OC)[C@H]1CO[C@H]1CC[C@@H](c2cccc(F)c2)CC1 [Example 3, methyl (2R,3S,3aS,6aR)-2-((((1s,4S)-4-(3-fluorophenyl)cyclohexyl)oxy)methyl)-3-((N-methylsulfamoyl)amino)hexahydrocyclopenta[b]pyrrole-1(2H)-carboxylate]	98%
COC(=O)N1[C@@H]2COC[C@@H]2[C@H](NS(=O)(=O)CF)[C@@H]1CO[C@H]1CC[C@@H](c2cccc(F)c2)CC1 [Example 6, methyl (2R,3S,3aS,6aS)-3-((fluoromethyl)sulfonamido)-2-((((1s,4S)-4-(3-fluorophenyl)-cyclohexyl)oxy)methyl)hexahydro-1H-furo[3,4-b]pyrrole-1-carboxylate]	102%
COC(=O)N1[C@@H]2CCC[C@@H]2[C@H](NS(C)(=O)=O)[C@@H]1CO[C@H]1CC[C@@H](c2cccc(F)c2)CC1 [Example 1, methyl (2R,3S,3aS,6aR)-2-((((1s,4S)-4-(3-fluorophenyl)cyclohexyl)oxy)methyl)-3-(methylsulfonamido)hexahydrocyclopenta[b]pyrrole-1(2H)-carboxylate]	101%
COC(=O)N1[C@@H]2COC[C@@H]2[C@H](NS(C)(=O)=O)[C@@H]1CO[C@H]1CC[C@@H](c2cccc(F)c2)CC1 [Example 4, methyl (2R,3S,3aS,6aS)-2-((((1s,4S)-4-(3-fluorophenyl)cyclohexyl)oxy)methyl)-3-(methylsulfonamido)hexahydro-1H-furo[3,4-b]pyrrole-1-carboxylate]	101%
COC(=O)N1[C@@H]2CC[C@@H]2[C@H](NS(C)(=O)=O)[C@@H]1CO[C@H]1CC[C@@H](c2ccccc2)CC1 [Example 11, methyl (1R,3R,4S,5S)-4-(methylsulfonamido)-3-((((1s,4S)-4-phenylcyclohexyl)oxy)methyl)-2-azabicyclo[3.2.0]heptane-2-carboxylate]	103%
